Data from patent US5030760A, “Tetrahydrophthalimides, and their production and use” (Sumitomo Chemical Company, Ltd., priority 1981, dated 1991).

Experiments:
[1] = system: barnyardgrass; experiment: Test Example 1, foliar treatment, herbicidal activity; format: in vivo, Echinochloa crus-galli; settings: 3 weeks; further: ranges in brackets are in %
Summary of the method: (§1)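 Crops and weeds sown in upland soil, greenhouse-grown 2 weeks, then sprayed on foliage with compound as emulsifiable concentrate in water plus spreading agent at 5 liters per are. Scored 3 weeks later from aerial fresh weight as percent of untreated plants, converted to a rating scale.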

[2] = system: wild mustard; experiment: as above; format: in vivo, Brassica kaber; settings: 3 weeks
Summary of the method: as §1

[3] = system: velvetleaf; experiment: as above; format: in vivo, Abutilon theophrasti; settings: 3 weeks
Summary of the method: as §1

[4] = system: tall morningglory; experiment: Test Example 2, field foliar treatment, herbicidal activity; format: in vivo, Ipomoea purpurea; settings: 3 weeks; further: ranges in brackets are in %
Method: (§2) The application of the tetrahydrophthalimides (I) as herbicides will be illustratively shown in the following Examples wherein the phytotoxicity to cultivated plants and the herbicidal activity on weeds were evaluated as follows: the aerial parts of the test plants were cut off and weighed (fresh weight); the percentage of the fresh weight of the treated plant to that of the untreated plant was calculated with the latter fresh weight taken as 100; and the crop damage and the herbicidal activity were evaluated by the standard given in the table below. The rating values of phytotoxicity, 0 and 1, and those of herbicidal effect, 5 and 4, are generally regarded as satisfactory to protect cultivated plants and control weeds, respectively. The rating values in the paddy field test alone were calculated from the dry weight of the test plants.
Seeds of corn and broad-leaved weeds such as cocklebur, common purslane and tall morningglory were sown in the field as previously laid up in ridges, each ridge having an upper width of 1 m. At the time when the corn grew up to the 6-leaf stage and the broad-leaved weeds up to 2 to 5-leaf stages, a designed amount of the test compound formulated into an emulsifiable concentrate according to Preparation Example 2 and dispersed in water was sprayed to the foliage of the test plants with three replications over the top by means of a small hand sprayer at a spray volume of 5 liters per are. After cultivation for 3 weeks, herbicidal activity and phytotoxicity were examined.

[5] = system: corn; experiment: Test Example 3, soil surface spraying, phytotoxicity to corn; format: in vivo; settings: 20 days; further: ranges in brackets are in %
Method: as §2
(§3) Plastic trays (35 cm×25 cm×15 cm) were filled with upland field soil, and the seeds of tall morningglory, velvetleaf and sicklepod and the seeds of corn were sown therein. A designed amount of the test compounds formulated into a wettable powder according to Preparation Example 1 was dispersed in water and applied by spraying at a spray volume of 5 liters per are to the whole surface of the soil. After the spraying, the test plants were placed in a greenhouse and grown for 20 days, and herbicidal activity and phytotoxicity were examined.

[6] = system: tall morningglory; experiment: Test Example 3, soil surface spraying, herbicidal activity; format: in vivo, Ipomoea purpurea; settings: 20 days; further: ranges in brackets are in %
Method: as §2, §3

[7] = system: sicklepod; experiment: as above; format: in vivo, Cassia obtusifolia; settings: 20 days; further: ranges in brackets are in %
Method: as §2, §3

[8] = system: corn; experiment: Test Example 4, pre-emergence treatment, phytotoxicity to corn; format: in vivo; settings: 20 days; further: ranges in brackets are in %
Summary of the method: (§4)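 After sowing in upland field soil, the test compound was sprayed over the soil as a water-dispersed emulsifiable concentrate with spreading agent. Plants grew 20 days in the greenhouse before aerial parts were cut and weighed, and ratings were assigned from fresh weight as percent of untreated.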

[9] = system: velvetleaf; experiment: Test Example 4, pre-emergence treatment, herbicidal activity; format: in vivo, Abutilon theophrasti; settings: 20 days; further: ranges in brackets are in %
Summary of the method: as §4

[10] = system: Johnsongrass; experiment: as above; format: in vivo, Sorghum halepense; settings: 20 days
Summary of the method: as §4

[11] = system: green foxtail; experiment: as above; format: in vivo, Setaria viridis; settings: 20 days
Summary of the method: as §4

[12] = system: velvetleaf; experiment: Test Example 5, spraying over the top, herbicidal activity; format: in vivo, Abutilon theophrasti; settings: sprayed over the top, 20 days; further: ranges in brackets are in %
Method: as §2
(§5) Plastic trays (35 cm×25 cm×15 cm) were filled with upland field soil, and the seeds of tall morningglory, velvetleaf, jimsonweed, sicklepod, hemp sesbania, prickly side, Johnsongrass, green foxtail and large crabgrass and the seeds of soybean were sown therein. A designed amount of the test compound formulated into a wettable powder according to Preparation Example 1 and dispersed in water was sprayed over the top by means of a small hand sprayer at a spray volume of 5 liters per are. After the spraying, the test plants were grown in greenhouse for 20 days, and phytotoxicity and herbicidal activity were examined.

[13] = system: jimsonweed; experiment: as above; format: in vivo, Datura stramonium; settings: sprayed over the top, 20 days; further: ranges in brackets are in %
Method: as §2, §5

[14] = system: green foxtail; experiment: as above; format: in vivo, Setaria viridis; settings: sprayed over the top, 20 days
Method: as §2, §5

[15] = system: large crabgrass; experiment: as above; format: in vivo, Digitaria sanguinalis; settings: sprayed over the top, 20 days; further: ranges in brackets are in %
Method: as §2, §5

[16] = system: Johnsongrass; experiment: as above; format: in vivo, Sorghum halepense; settings: sprayed over the top, 20 days
Method: as §2, §5

[17] = system: rice plant; experiment: Test Example 6, paddy pot perfusion, phytotoxicity to rice plant; format: in vivo; settings: 3 weeks, dry weight; further: ranges in brackets are in %
Method: as §2
(§6) Wagner's pots (1/5000 are) were filled with paddy field soil containing the seeds of broad-leaved weeds (e.g. monochoria, false pimpernel, toothcup) and the seeds of barnyardgrass and hardstem bulrush, and water was poured therein until the depth of water became 4 cm. Rice seedlings of the 3.5-leaf stage and the tubers of arrowhead were transplanted therein and grown for 2 days in a greenhouse. A designed amount of the test compound formulated in an emulsifiable concentrate according to Preparation Example 2 was applied to the pots by perfusion. Thereafter, the test plants were grown for an additional 3 weeks in the greenhouse, and herbicidal activity and phytotoxicity were examined. In this treatment, the emulsifiable concentrate was dispersed in water for application at a perfusion volume of 10 liters per are.

[18] = system: barnyardgrass; experiment: Test Example 6, paddy pot perfusion, herbicidal activity; format: in vivo, Echinochloa crus-galli; settings: 3 weeks, dry weight; further: ranges in brackets are in %
Method: as §2, §6

[19] = system: broad-leaved weed; experiment: as above; format: in vivo, monochoria, false pimpernel, toothcup; settings: 3 weeks, dry weight; further: ranges in brackets are in %
Method: as §2, §6
Wherever Herbicidal activity, Green foxtail is given: ranges in brackets are in %.
Wherever Herbicidal activity, Johnsongrass is given: ranges in brackets are in %.
Wherever Herbicidal activity, Velvetleaf is given: ranges in brackets are in %.

Row | SMILES | Herbicidal activity, Barnyardgrass ([1]; 1.25 g/are) | Herbicidal activity, Barnyardgrass ([1]; 5 g/are) | Herbicidal activity, Wild mustard ([2]; 1.25 g/are) | Herbicidal activity, Wild mustard ([2]; 5 g/are) | Herbicidal activity, Velvetleaf ([3]; 1.25 g/are) | Herbicidal activity, Velvetleaf ([3]; 5 g/are) | Herbicidal activity, Tall morningglory ([4]; 0.63 g/are) | Herbicidal activity, Tall morningglory ([4]; 1.25 g/are) | Phytotoxicity, Corn ([5]; 5 g/are) | Phytotoxicity, Corn ([5]; 10 g/are) | Herbicidal activity, Tall morningglory ([6]; 5 g/are) | Herbicidal activity, Tall morningglory ([6]; 10 g/are) | Herbicidal activity, Sicklepod ([7]; 5 g/are) | Herbicidal activity, Sicklepod ([7]; 10 g/are) | Herbicidal activity, Velvetleaf ([12]; 10 g/are) | Herbicidal activity, Velvetleaf ([12]; 20 g/are) | Herbicidal activity, Jimsonweed ([13]; 10 g/are) | Herbicidal activity, Jimsonweed ([13]; 20 g/are) | Herbicidal activity, Green foxtail ([14]; 10 g/are) | Herbicidal activity, Green foxtail ([14]; 20 g/are) | also measured
1 | O=C1C2=C(CCCC2)C(=O)N1c1ccc(Cl)cc1F [A, 2-fluoro-4-chlorophenyltetrahydrophthalimide, reference compound] | 1 (41-60) | 3 (11-20) | 3 (11-20) | 5 (0) | 5 (0) | 5 (0) | 2 (21-40) | 2 (21-40) | 2 (80-89) | 3 (60-79) | 0 (61-100) | 0 (61-100) | 0 (61-100) | 1 (41-60) | 5 (0) | 5 (0) | 4 (1-10) | 5 (0) | 5 (0) | 5 (0) | Phytotoxicity, Corn ([8]; 2.5 g/are): 0 (100); Phytotoxicity, Corn ([8]; 10 g/are): 2 (80-89); Herbicidal activity, Velvetleaf ([9]; 2.5 g/are): 4 (1-10); Herbicidal activity, Velvetleaf ([9]; 10 g/are): 5 (0); Herbicidal activity, Johnsongrass ([10]; 2.5 g/are): 1 (41-60); Herbicidal activity, Johnsongrass ([10]; 10 g/are): 3 (11-20); Herbicidal activity, Green foxtail ([11]; 2.5 g/are): 1 (41-60); Herbicidal activity, Green foxtail ([11]; 10 g/are): 4 (1-10); Herbicidal activity, Large crabgrass ([15]; 10 g/are): 5 (0); Herbicidal activity, Large crabgrass ([15]; 20 g/are): 5 (0); Herbicidal activity, Johnsongrass ([16]; 10 g/are): 4 (1-10); Herbicidal activity, Johnsongrass ([16]; 20 g/are): 5 (0); Phytotoxicity, Rice plant ([17]; 1.25 g/are): 0 (100); Phytotoxicity, Rice plant ([17]; 2.5 g/are): 1 (90-99); Herbicidal activity, Barnyardgrass ([18]; 1.25 g/are): 1 (41-60); Herbicidal activity, Barnyardgrass ([18]; 2.5 g/are): 2 (21-40); Herbicidal activity, Broad-leaved weed ([19]; 1.25 g/are): 5 (0); Herbicidal activity, Broad-leaved weed ([19]; 2.5 g/are): 5 (0)
2 | CC(C)Oc1cc(N2C(=O)C3=C(CCCC3)C2=O)c(Cl)cc1Cl [B, 2,4-dichloro-5-isopropoxyphenyltetrahydrophthalimide, reference compound] | 0 (61-100) | 2 (21-40) | 2 (21-40) | 3 (11-20) | 5 (0) | 5 (0) | 3 (11-20) | 4 (1-10) | 0 (100) | 0 (100) | 0 (61-100) | 0 (61-100) | 0 (61-100) | 1 (41-60) | 4 (1-10) | 5 (0) | 4 (1-10) | 4 (1-10) | 3 (11-20) | 4 (1-10) | Phytotoxicity, Corn ([8]; 5 g/are): 0 (100); Phytotoxicity, Corn ([8]; 20 g/are): 1 (90-99); Herbicidal activity, Velvetleaf ([9]; 5 g/are): 1 (41-60); Herbicidal activity, Velvetleaf ([9]; 20 g/are): 3 (11-20); Herbicidal activity, Johnsongrass ([10]; 5 g/are): 1 (41-60); Herbicidal activity, Johnsongrass ([10]; 20 g/are): 2 (21-40); Herbicidal activity, Green foxtail ([11]; 5 g/are): 0 (61-100); Herbicidal activity, Green foxtail ([11]; 20 g/are): 0 (61-100); Herbicidal activity, Large crabgrass ([15]; 10 g/are): 3 (11-20); Herbicidal activity, Large crabgrass ([15]; 20 g/are): 4 (1-10); Herbicidal activity, Johnsongrass ([16]; 10 g/are): 2 (21-40); Herbicidal activity, Johnsongrass ([16]; 20 g/are): 3 (11-20); Phytotoxicity, Rice plant ([17]; 1.25 g/are): 0 (100); Phytotoxicity, Rice plant ([17]; 2.5 g/are): 0 (100); Herbicidal activity, Barnyardgrass ([18]; 1.25 g/are): 1 (41-60); Herbicidal activity, Barnyardgrass ([18]; 2.5 g/are): 3 (11-20); Herbicidal activity, Broad-leaved weed ([19]; 1.25 g/are): 5 (0); Herbicidal activity, Broad-leaved weed ([19]; 2.5 g/are): 5 (0)
